Experimental data taken from patent US5646155A, “Drugs to prevent recurrent herpes virus infections” (priority 1994, dated 1997).
Converted amounts (≈) assume the structure as drawn. Like-named read-outs stand apart in the source and are kept apart here.

Columns and labels:
[1] = molecular target: Varicella Zoster Virus (VZV) Thymidine Kinase (TK) (Varicella-zoster virus, UniProt P09250); experiment: VZV thymidine kinase inhibition (Table 7); format: biochemical
[2] = molecular target: HSV2 TK (Human herpesvirus 2, UniProt P04407); experiment: HSV2 thymidine kinase inhibition (Table 1); format: biochemical
Source text: kinases (TK) from Herpes simplex virus types 1 and 2 (HSV1, HSV2).

[3] = Solubility in water (Table 1); format: physicochemical; conditions: read-out: Sol. in H2O
[4] = physchem; conditions: octanol/water
[5] = molecular target: HSV1 TK (Human herpesvirus 1, UniProt P0DTH5); experiment: biochemical
[6] = Pharmacokinetics in mice following intraperitoneal administration (Table 3); format: in vivo; conditions: mouse, ip
Protocol: Pharmacokinetic parameters of inhibitors in mice
following intraperitoneal (100 mg/Kg) administration (i.p.)
^1 Plasma concentrations were measured by analytical HPLC on a C8
reverse phase column as described in the experimental Section.

[7] = system: HSV1, strain McKrae; experiment: Reactivation in vitro of latent HSV1 strain McKrae from explanted mouse ganglia (Table 6); format: cell-based, mice; conditions: 15 μM drugs, 7 days, supernatant added to Vero cells
Protocol: Screening of compounds is carried out using an in vitro explant cocultivation model in mice. Ocular HSV1 infections are initiated and, after subsidence of the infectious phase (several days), latent HSV1 infection becomes established in the trigeminal ganglia of the mice. The ganglia are then surgically removed and minced or homogenized, and this explanted tissue is cocultivated on mammalian cells, typically Vero cells. The frequency of reactivation is determined as the percentage of ganglia that produce HSV1 virus (as measured by viral cytopathic effect (CPE)) in the cultures. Effective drugs present during the cocultivation period will decrease the frequency of reactivation relative to untreated cocultures. See Leib et al. (J. Virol. 63:759-768 (1989)), incorporated herein by reference, and statements herein for further experimental details.
Latent ocular HSV1 infections were established in mice. Trigeminal gangli
were removed and treated as follows.
^2 Ganglia were minced and incubated for 7 days in the presence of 15
μM drugs; after homogenization, supernatant was added to Vero cells in
culture (courtesy of Dr. Y. J. Gordon, Eye and Ear Institute, Pittsburgh)

[8] = Absorption and distribution in mice (Table 2); format: in vivo; conditions: for Vd/F: i.p.; for half-life: plasma
Source text: Absorption and distribution of 9-substituted-N^2 -phenylquanines in mice.
*i.v., intravenous; i.p., intraperitoneal.

[9] = system: HSV1; experiment: Hyperthermia-induced HSV1 reactivation in mice, infectious virus (Table 4); format: in vivo; conditions: for Infectious Virus, Ganglion / Infectious Virus, Ocular Surface: 200 mg/kg
Protocol: (§1) Table 5 provides quantitation of viral DNA using quantitative, competitive polymerase chain reaction methods.
(§2) .dagger-dbl.HSV1 latent mice were treated with HBPG (200 mg/kg), stressed
(§3) by immersion in 43° C. water for 10 min, and sacrificed 24 hours
ΔGanglion homogenates and ocular surface swabs were cocultured on
indicator cells and the appearance of cytopathic effect recorded.

[10] = system: HSV1; experiment: Hyperthermia-induced viral DNA synthesis in HSV1 latent mice, QCPCR (Table 5); format: in vivo; conditions: 200 mg/kg, stressed (43° C. water 10 min), ganglionic DNA
Protocol: as §1, §2, §3
ΔGanglionic DNA was amplified in quantitative, competitive
polymerase chain reaction (QCPCR) and the copy number of the viral gene
present determined at the equivalence point.

[11] = system: HSV1, strain KOS; conditions: 150 μM drugs, cocultivated on Vero cells (from Leib et al.); cited from earlier work
[12] = mouse, in vivo, ip, mice, in 90% DMSO/H2O, read-out: Volume of Distribution
[13] = mouse, ip, mice, in 90% DMSO/H2O
[14] = stressed (43° C. water 10 min), sacrificed 24 hours later
[15] = mouse, ip, pH 11.3, mice, in saline, pH 11.3

Chain of HSV2 TK (P04407 whole entry): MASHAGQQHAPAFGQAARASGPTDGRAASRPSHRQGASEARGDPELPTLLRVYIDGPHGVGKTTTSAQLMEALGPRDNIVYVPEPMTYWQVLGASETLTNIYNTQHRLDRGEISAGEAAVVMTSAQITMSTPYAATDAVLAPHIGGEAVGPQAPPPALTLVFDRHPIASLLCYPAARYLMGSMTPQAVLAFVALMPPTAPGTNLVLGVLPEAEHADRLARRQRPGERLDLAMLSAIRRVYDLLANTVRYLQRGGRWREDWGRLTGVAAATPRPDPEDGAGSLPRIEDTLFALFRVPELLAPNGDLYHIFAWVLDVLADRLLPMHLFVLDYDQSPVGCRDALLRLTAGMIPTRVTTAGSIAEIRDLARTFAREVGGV
Chain of Varicella Zoster Virus (VZV) Thymidine Kinase (TK) (P09250 whole entry, looked up): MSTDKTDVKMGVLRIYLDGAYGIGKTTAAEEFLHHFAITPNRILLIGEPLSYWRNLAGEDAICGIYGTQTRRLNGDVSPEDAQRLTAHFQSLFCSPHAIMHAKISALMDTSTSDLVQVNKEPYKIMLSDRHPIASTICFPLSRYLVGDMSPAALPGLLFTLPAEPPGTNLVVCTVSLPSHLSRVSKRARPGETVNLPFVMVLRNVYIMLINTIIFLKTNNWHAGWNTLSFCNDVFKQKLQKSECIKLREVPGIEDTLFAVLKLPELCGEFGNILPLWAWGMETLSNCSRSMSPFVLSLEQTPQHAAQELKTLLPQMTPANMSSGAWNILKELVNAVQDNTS
Chain of HSV1 TK (P0DTH5 whole entry): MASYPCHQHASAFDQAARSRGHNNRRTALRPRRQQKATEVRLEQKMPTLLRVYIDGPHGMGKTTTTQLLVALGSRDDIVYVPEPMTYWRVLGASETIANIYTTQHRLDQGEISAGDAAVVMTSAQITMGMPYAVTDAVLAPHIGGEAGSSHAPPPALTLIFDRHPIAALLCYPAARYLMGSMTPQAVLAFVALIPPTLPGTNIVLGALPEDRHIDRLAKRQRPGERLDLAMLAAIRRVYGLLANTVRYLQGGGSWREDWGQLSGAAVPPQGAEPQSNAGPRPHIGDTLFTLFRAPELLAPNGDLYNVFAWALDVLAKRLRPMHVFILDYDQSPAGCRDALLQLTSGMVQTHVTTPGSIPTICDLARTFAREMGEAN

CCCCCCCCCCCCNc1nc2nc[nH]c2c(=O)[nH]1 [C12 G, N^2 -(n-Dodecyl)guanine]
Ki [1]: 3.2 µM | Mode of inhibition of VZV TK [1]: Competitive inhibitor

CCCCCCCCCCCCCCNc1nc2[nH]cnc2c(=O)[nH]1 [C14 G]
IC50 [1]: 69 µM

O=c1[nH]c(Nc2ccccc2)nc2c1ncn2CC(O)CSCCO (stereo not shown) [CH2 CHCH2SCH2 CH2 OH]
IC50 ([2]; read-out: IC50 HSV2 TK): 1560 nM | solubility [3]: 29.8 µM (≈ 10.8 µg/mL) | logP [4]: 0.826

C=CCn1cnc2c(=O)[nH]c(Nc3ccccc3)nc21 [CH2 CHCH2]
solubility [3]: 8.1 µM (≈ 2.17 µg/mL) | logP [4]: 1.75

O=c1[nH]c(Nc2ccccc2)nc2c1ncn2COC(CO)CO [CH2OCH(CH2 OH)2]
IC50 [5]: 500 nM | solubility [3]: 113 µM (≈ 37.4 µg/mL) | logP [4]: 0

O=c1[nH]c(Nc2ccccc2)nc2c1ncn2CC(O)CO (stereo not shown) [DHP-PG, 9-(2,3-Dihydroxypropyl)-N^2-phenylguanine]
solubility [3]: 171 µM (≈ 51.4 µg/mL) | C0 ([6]; in vivo, 100 mg/kg): 115 µM | half-life ([6]; in vivo, 100 mg/kg): 17.3 min | # ganglia reactivated/# explanted, HSV1 strain McKrae [7]: 4/4 | logP [4]: 0.398

O=c1[nH]c(Nc2ccccc2)nc2c1ncn2CCCCO [HB-PG, 9-(4-Hydroxybutyl)-N^2-phenylguanine]
IC50 [2]: 2200 nM | solubility [3]: 56 µM (≈ 16.8 µg/mL) | Vd/F [8, 12]: 12.7 L/kg | half-life [8, 13]: 85 min | half-life ([8]; mouse, ip, mice, in corn oil): 55 min | C0 ([6]; in vivo, 100 mg/kg): 30.5 µM | Infectious Virus, Ganglion ([9]; not stressed): 0/8 | Infectious Virus, Ocular Surface ([9]; not stressed): 0/9 | Infectious Virus, Ganglion [9, 14]: 7/18 | Infectious Virus, Ocular Surface [9, 14]: 3/20 | P, difference in frequency of virus in samples from HBPG-treated compared to placebo-treated animals ([9]; vs placebo): < 0.05 | Viral DNA [10]: < 1 × 10^2 copies | # ganglia reactivated/# explanted, HSV1 strain McKrae [7]: 2/4 | logP [4]: 1.26

O=c1[nH]c(Nc2ccccc2)nc2c1ncn2CCO [HE-PG, 9-(2-Hydroxyethyl)-N^2-phenylguanine]
solubility [3]: 156 µM (≈ 42.4 µg/mL) | Plasma half-life ([8]; mice, i.v., in 90% DMSO/H2O): 15 min | Volume of Distribution ([8]; mice, i.v., in 90% DMSO/H2O): 3.3 L/kg | Vd/F [8, 12]: 4.3 L/kg | half-life [8, 13]: 19 min | C0 ([6]; in vivo, 100 mg/kg): 100 µM | half-life ([6]; plasma, mice, i.p. 100 mg/Kg, 90% DMSO, read-out: Plasma t1/2): 21 min | # ganglia reactivated/# explanted, HSV1 strain McKrae [7]: 4/4 | logP [4]: 0.833

Oc1[nH]c(Nc2ccccc2)nc2ncnc1-2 [H]
IC50 [2]: 1600 nM

O=C(O)Cn1cnc2c(=O)[nH]c(Nc3ccccc3)nc21 [PG-AA, (N^2 -Phenylguan-9-yl)acetic acid]
Vd/F [8, 12]: 1.7 L/kg | half-life [8, 13]: 33 min | C0 ([6]; in vivo, 100 mg/kg): 246 µM | half-life ([6]; in vivo, 100 mg/kg): 26.6 min | # ganglia reactivated/# explanted, HSV1 strain McKrae [7]: 4/4

O=c1[nH]c(Nc2ccccc2)nc2c1ncn2[C@H]1C[C@H](O)[C@@H](CO)O1 [PhdG, 9-(2-Deoxyribofuranosyl)-N^2-phenylguanine]
Vd ([8]; mouse, in vivo, iv, mice, i.v., in saline, pH 11.3, read-out: Volume of Distribution): 0.4 L/kg | half-life [8, 15]: 60 min | half-life ([8]; mouse, iv, pH 11.3, mice, in saline, pH 11.3): 7.5 min | C0 ([6]; in vivo, 100 mg/kg, pH 11.4): 11.7 µM | half-life ([6]; in vivo, 100 mg/kg, pH 11.4): 60 min | # ganglia reactivated/# explanted, HSV1 strain McKrae [7]: 1/4 | # ganglia reactivated/# explanted, HSV1 strain KOS [11]: 3/20

CCCNc1nc2c(ncn2[C@H]2C[C@H](O)[C@@H](CO)O2)c(=O)[nH]1 [PrdG, 9-(2-deoxyribofuranosyl)-N^2-n-propylguanine]
IC50 [1]: 20 µM | Ki [1]: 13.6 µM | Mode of inhibition of VZV TK [1]: Competitive inhibitor

O=c1[nH]c(Nc2ccccc2)nc2c1ncn2[C@H]1C[C@H](O)[C@@H](CO)O1 [drawing 15]
IC50 [2]: 700 nM | solubility [3]: 81 µM (≈ 27.8 µg/mL) | logP [4]: 0.398

O=c1[nH]c(Nc2cccc(C(F)(F)F)c2)nc2nc[nH]c12 [m-CF3 PG, N^2-(m-[trifluoromethyl]phenyl)guanine, reference compound]
Plasma half-life ([8]; mice, i.v., in saline, pH 11.3): 25 min | Volume of Distribution ([8]; mice, i.v., in saline, pH 11.3): 3.0 L/kg | half-life [8, 15]: 140 min | C0 ([6]; in vivo, 100 mg/kg, pH 11.4): 10.2 µM | # ganglia reactivated/# explanted, HSV1 strain McKrae [7]: 0/4 | # ganglia reactivated/# explanted, HSV1 strain KOS [11]: 1/20
